Results reported in US11576897B2, “Therapeutic agent for non-motor symptoms associated with Parkinson's disease” (priority 2017, dated 2023).
Like-named read-outs stand apart in the source and are kept apart here.

How the values were obtained:
human 5-HT2A receptor = human 5-HT2A receptor (Homo sapiens (Human), UniProt P28223); assay: biochemical; assay type: binding; settings: read-out: 5-HT2A receptor binding inhibition constant Ki
[1] = biological target: human serotonin transporter (SERT) (Homo sapiens (Human), UniProt P31645); assay: Human serotonin transporter (SERT) binding test; settings: [3H]-citalopram, h-SERT/CHO cell membrane; read-out: h-SERT binding inhibition constant Ki
[2] = [3H]-ketanserin, human 5-HT2A receptor-expressed CHO cell membrane

Compound	Ki (human 5-HT2A receptor) [nM]	Ki (human 5-HT2A receptor; [2]) [nM]	Ki [1] [nM]
CNCc1cc(OCc2ccccc2)n(CC2CCCCC2)n1 [Example 5, 1-[5-(benzyloxy)-1-(cyclohexylmethyl)-1H-pyrazol-3-yl]-N-methylmethanamine]	5.9		
CNCc1cc(OCc2cc(F)ccc2F)n(CCC(C)(C)C)n1 [Example 266, 1-{5-[(2,5-difluorobenzyl)oxy]-1-(3,3-dimethylbutyl)-1H-pyrazol-3-yl}-N-methylmethanamine]		0.65	
CNCc1cc(OCc2ccccc2)n(C(C)C2CCCC2)n1 (stereo not shown) [Example 288, 1-[5-(benzyloxy)-1-(1-cyclopentylethyl)-1H-pyrazol-3-yl]-N-methylmethanamine]	5.2		
CNCc1cc(OCc2cc(F)ccc2F)n(Cc2ccc(C)cc2)n1 [Example 230, 1-{5-[(2,5-difluorobenzyl)oxy]-1-(4-methylbenzyl)-1H-pyrazol-3-yl}-N-methylmethanamine]		2.7	
CNC(C)c1cc(OCc2cc(F)ccc2F)n(CCC2CCCC2)n1 (stereo not shown) [Example 315, 1-{1-(2-cyclopentylethyl)-5-[(2,5-difluorobenzyl)oxy]-1H-pyrazol-3-yl}-N-methylethanamine]		0.6	
CNCc1cc(OCc2cc(C)ccc2F)n(C(C)C2CCCCC2)n1 (stereo not shown) [Example 305, 1-{1-(1-cyclohexylethyl)-5-[(2-fluoro-5-methylbenzyl)oxy]-1H-pyrazol-3-yl}-N-methylmethanamine]	2.5		2
Fc1ccc(F)c(COc2cc(CNC3CC3)nn2CC2CCCCC2)c1 [Example 342, N-({1-(cyclohexylmethyl)-5-[(2,5-difluorobenzyl)oxy]-1H-pyrazol-3-yl}methyl)cyclopropanamine]		4.9	
CNCc1cc(OCc2ccc(F)cc2Cl)n(C(C)C2CCCCC2)n1 (stereo not shown) [Example 301, 1-{5-[(2-chloro-4-fluorobenzyl)oxy]-1-(1-cyclohexylethyl)-1H-pyrazol-3-yl}-N-methylmethanamine]		0.88	1.3
CNCc1cc(OCc2cc(F)ccc2Cl)n(CC2CCCCC2)n1 [Example 37, 1-{5-[(2-chloro-5-fluorobenzyl)oxy]-1-(cyclohexylmethyl)-1H-pyrazol-3-yl}-N-methylmethanamine]	2.1		0.89
CNCc1cc(OCc2cc(Cl)ccc2F)n(CC2CC3CCC2C3)n1 (stereo not shown) [Example 118, 1-{1-(bicyclo[2.2.1]hept-2-ylmethyl)-5-[(5-chloro-2-fluorobenzyl)oxy]-1H-pyrazol-3-yl}-N-methylmethanamine]		0.73	2
CNCc1cc(OCc2ccccc2)n(C(C)C2CCCCC2)n1 (stereo not shown) [Example 292, 1-[5-(benzyloxy)-1-(1-cyclohexylethyl)-1H-pyrazol-3-yl]-N-methylmethanamine]		1.2	0.96
CNCc1cc(OCc2ccc(F)cc2F)n(CC2CCCC2)n1 [Example 144, 1-{1-(cyclopentylmethyl)-5-[(2,4-difluorobenzyl)oxy]-1H-pyrazol-3-yl}-N-methylmethanamine]	0.2		
CNCc1cc(OCc2cc(Cl)ccc2Cl)n(CC2CCCCC2)n1 [Example 38, 1-{1-(cyclohexylmethyl)-5-[(2,5-dichlorobenzyl)oxy]-1H-pyrazol-3-yl}-N-methylmethanamine]		3.2	2.4
CNCc1cc(OCc2ccccc2F)n(CC2CCCCC2)n1 [Example 20, 1-{1-(cyclohexylmethyl)-5-[(2-fluorobenzyl)oxy]-1H-pyrazol-3-yl}-N-methylmethanamine]		0.65	1.6
CNCc1cc(OCc2cc(F)ccc2F)n(CC2CC3CCC2C3)n1 (stereo not shown) [Example 117, 1-{1-(bicyclo[2.2.1]hept-2-ylmethyl)-5-[(2,5-difluorobenzyl)oxy]-1H-pyrazol-3-yl}-N-methylmethanamine]	0.76		0.5
CNCc1cc(OCc2cc(F)ccc2F)n(CC2CCC(F)(F)CC2)n1 [Example 124, 1-{5-[(2,5-difluorobenzyl)oxy]-1-[(4,4-difluorocyclohexyl)methyl]-1H-pyrazol-3-yl}-N-methylmethanamine]		1.7	0.71
CNCc1cc(OCc2ccc(F)cc2Cl)n(CC2CCCCC2)n1 [Example 30, 1-{5-[(2-chloro-4-fluorobenzyl)oxy]-1-(cyclohexylmethyl)-1H-pyrazol-3-yl}-N-methylmethanamine]		0.52	1.5
CNCc1cc(OCc2cc(F)ccc2F)n(Cc2ccc(F)cc2)n1 [Example 219, 1-{5-[(2,5-difluorobenzyl)oxy]-1-(4-fluorobenzyl)-1H-pyrazol-3-yl}-N-methylmethanamine]		1.3	
CNCc1cc(OCc2ccccc2Cl)n(CC2CCCC2)n1 [Example 138, 1-{5-[(2-chlorobenzyl)oxy]-1-(cyclopentylmethyl)-1H-pyrazol-3-yl}-N-methylmethanamine]		11	1.8
CNCc1cc(OCc2cc(F)ccc2F)n(Cc2ccc(Cl)cc2)n1 [Example 224, 1-{1-(4-chlorobenzyl)-5-[(2,5-difluorobenzyl)oxy]-1H-pyrazol-3-yl}-N-methylmethanamine]		1.2	1.5

Compound	Ki (human 5-HT2A receptor) [nM]	Ki (human 5-HT2A receptor; [2]) [nM]	Ki [1] [nM]
CNCc1cc(OCc2cccc(C)c2)n(C(C)C2CCCCC2)n1 (stereo not shown) [Example 299, 1-{1-(1-cyclohexylethyl)-5-[(3-methylbenzyl)oxy]-1H-pyrazol-3-yl}-N-methylmethanamine]		5.6	1.4
CNCc1cc(OCc2cc(Cl)ccc2F)n(CC2CCCC2)n1 [Example 148, 1-{5-[(5-chloro-2-fluorobenzyl)oxy]-1-(cyclopentylmethyl)-1H-pyrazol-3-yl}-N-methylmethanamine]	1.8		
CNCc1cc(OCc2ccc(F)cc2C)n(CC2CCCCC2)n1 [Example 31, 1-{1-(cyclohexylmethyl)-5-[(4-fluoro-2-methylbenzyl)oxy]-1H-pyrazol-3-yl}-N-methylmethanamine]	1.4		
CNCc1cc(OCc2cc(F)c(F)cc2F)n(CCC(C)(C)C)n1 [Example 284, 1-{1-(3,3-dimethylbutyl)-5-[(2,4,5-trifluorobenzyl)oxy]-1H-pyrazol-3-yl}-N-methylmethanamine]		1.8	
CNCc1cc(OCc2ccccc2)n(C(CF)C2CCCCC2)n1 (stereo not shown) [Example 330, 1-[5-(benzyloxy)-1-(1-cyclohexyl-2-fluoroethyl)-1H-pyrazol-3-yl]-N-methylmethanamine]	2.8		
CNCc1cc(OCc2cc(Cl)ccc2F)n(CC(C)(C)C)n1 [Example 259, 1-{5-[(5-chloro-2-fluorobenzyl)oxy]-1-(2,2-dimethylpropyl)-1H-pyrazol-3-yl}-N-methylmethanamine]		7.5	
CNCc1cc(OCc2cc(F)ccc2F)n(C(C)C2CCCCC2)n1 (stereo not shown) [Example 303, 1-{1-(1-cyclohexylethyl)-5-[(2,5-difluorobenzyl)oxy]-1H-pyrazol-3-yl}-N-methylmethanamine]		1.8	0.46
CNCc1cc(OCc2ccccc2F)n(Cc2ccc(F)cc2)n1 [Example 218, 1-{1-(4-fluorobenzyl)-5-[(2-fluorobenzyl)oxy]-1H-pyrazol-3-yl}-N-methylmethanamine]	1.2		
CNCc1cc(OC(F)(F)c2ccccc2)n(CC2CCCCC2)n1 [Example 349, 1-{1-(cyclohexylmethyl)-5-[difluoro(phenyl)methoxy]-1H-pyrazol-3-yl}-N-methylmethanamine]	6		
CNCc1cc(OCc2cc(F)c(F)cc2F)n(CC2CCCC2)n1 [Example 280, 1-{1-(cyclopentylmethyl)-5-[(2,4,5-trifluorobenzyl)oxy]-1H-pyrazol-3-yl}-N-methylmethanamine]		1.3	
CNCc1cc(OCc2ccc(F)cc2C)n(CC2CCCCO2)n1 (stereo not shown) [Example 108, 1-{5-[(4-fluoro-2-methylbenzyl)oxy]-1-(tetrahydro-2H-pyran-2-ylmethyl)-1H-pyrazolo-3-yl}-N-methylmethanamine]		4.8	1.9
Cl.[2H]C([2H])(Oc1cc(CNC)nn1CC1CCCCC1)c1cc(F)ccc1F [Example 497, 1-[1-(Cyclohexylmethyl)-5-{[(2,5-difluorophenyl) (^2H2)methyl]oxy}-1H-pyrazol-3-yl]-N-methylmethanamine Hydrochloride]		2.4	
CNCc1cc(OCc2cc(Cl)ccc2F)n(CC(C)C)n1 [Example 256, 1-{5-[(5-chloro-2-fluorobenzyl)oxy]-1-(2-methylpropyl)-1H-pyrazol-3-yl}-N-methylmethanamine]		4.5	
CNCc1cc(OCc2cc(F)c(F)cc2F)n(Cc2ccc(C)cc2)n1 [Example 286, N-methyl-1-{1-(4-methylbenzyl)-5-[(2,4,5-trifluorobenzyl)oxy]-1H-pyrazol-3-yl}methanamine]		2.4	
CNCc1cc(OCc2cc(F)ccc2F)n(CC2CCCCC2)n1 [Example 33, 1-{1-(cyclohexylmethyl)-5-[(2,5-difluorobenzyl)oxy]-1H-pyrazol-3-yl}-N-methylmethanamine]		0.5	
CNCc1cc(OCc2cccc(Cl)c2)n(CC2CCc3ccccc3O2)n1 (stereo not shown) [Example 341, 1-{5-[(3-chlorobenzyl)oxy]-1-(3,4-dihydro-2H-chromen-2-ylmethyl)-1H-pyrazol-3-yl}-N-methylmethanamine]	4.9		
CNCc1cc(OCc2ccccc2)n(Cc2ccccc2)n1 [Example 1, 1-[l-benzyl-5-(benzyloxy)-1H-pyrazol-3-yl]-N-methylmethanamine]		5.5	
CNCc1cc(OCc2cc(F)ccc2F)n(CC2(F)CCCCC2)n1 [Example 127, 1-{5-[(2,5-difluorobenzyl)oxy]-1-[(1-fluorocyclohexyl)methyl]-1H-pyrazol-3-yl}-N-methylmethanamine]			1.3
CNCc1cc(OCc2ccc(F)cc2)n(CC2CCCC2)n1 [Example 137, 1-{1-(cyclopentylmethyl)-5-[(4-fluorobenzyl)oxy]-1H-pyrazol-3-yl}-N-methylmethanamine]		1.3	
CNCc1cc(OCc2ccccc2)n(CC2CC3CCC2C3)n1 (stereo not shown) [Example 115, 1-[5-(benzyloxy)-1-(bicyclo[2.2.1]hept-2-ylmethyl)-1H-pyrazol-3-yl]-N-methylmethanamine]		1	
